Some test systems named below: CCRF-CEM leukemia; HOP-92 NSCLC; MOLT-4 leukemia; NCI-H23 lung; OVCAR-8 ovarian; RPMI-8226 leukemia; SK-OV-3 ovarian; SW-620 colon; MDA-N; BT-549 breast.
What all share (assay): growth of human tumour cells (NCI), 48 h

SMILES strings stand for the structures.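 Grown in 96-well plates, cells were treated for 48 hours with each compound at five concentrations. Insufficient inhibition: endpoint recorded as highest concentration tested. TGI: total growth inhibition.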

In the case of `O[C@H]1[C@H](O)[C@@H](O)CN2CC[C@H](O)[C@H]12`, the TGI in the experiment with CCRF-CEM leukemia, in the experiment with HOP-92 NSCLC, in the experiment on MOLT-4 leukemia, with NCI-H23 lung, with OVCAR-8 ovarian and with RPMI-8226 leukemia was greater than 100 µM each time. Besides, the TGI in the experiment on SK-OV-3 ovarian and with SW-620 colon was greater than 100 µM each time.
Regarding `Nc1ncc2c(n1)-c1ccccc1OC2N1CCCC1` (stereo unspecified), the TGI with CCRF-CEM leukemia, in the experiment on HOP-92 NSCLC, with MDA-N, in the experiment on MOLT-4 leukemia, with NCI-H23 lung and with OVCAR-8 ovarian was greater than 100 µM throughout. In addition, the TGI in the experiment on RPMI-8226 leukemia, in the experiment on SK-OV-3 ovarian and in the experiment with SW-620 colon was greater than 100 µM in each case.
`O=C(CN1C(=O)CC(c2ccccc2)(c2ccccc2)C1=O)N1CCN(CCO)CC1`: the TGI with BT-549 breast, in the experiment on CCRF-CEM leukemia, in the experiment with HOP-92 NSCLC, with MOLT-4 leukemia, with NCI-H23 lung and with OVCAR-8 ovarian was greater than 100 µM each time. For the same compound, the TGI in the experiment on RPMI-8226 leukemia, in the experiment on SK-OV-3 ovarian and with SW-620 colon was greater than 100 µM throughout.
On to `Cc1cc(C)nc(NC(=S)Nc2ccc([N+](=O)[O-])cc2)c1`, for which the TGI in the experiment on BT-549 breast, with CCRF-CEM leukemia, in the experiment with HOP-92 NSCLC, in the experiment with MOLT-4 leukemia, with NCI-H23 lung and with OVCAR-8 ovarian was greater than 100 µM each time. In addition, the TGI in the experiment on RPMI-8226 leukemia and with SW-620 colon was greater than 100 µM each time.
With `CCOC(=O)/C=C1/C(CCCOCc2ccccc2)C2CCCC23CC2(CCN13)OCCO2` (stereo unspecified), the TGI in the experiment on CCRF-CEM leukemia was 64.4 µM; with MOLT-4 leukemia, 33.2 µM; in the experiment with NCI-H23 lung, 43.8 µM; in the experiment with OVCAR-8 ovarian, greater than 100 µM; in the experiment on RPMI-8226 leukemia, 25 µM; in the experiment on SK-OV-3 ovarian it was 82.9 µM. In addition, in the experiment with SW-620 colon, the TGI is greater than 100 µM.
On to `N#Cc1sc2c(c1OC(=O)c1ccc(C(F)(F)F)cc1)c(=O)n(-c1ccccc1)c(=S)n2-c1ccccc1`, for which the TGI in the experiment on CCRF-CEM leukemia is 36.7 µM; in the experiment with HOP-92 NSCLC, 68.4 µM; in the experiment with MDA-N, greater than 100 µM; in the experiment with MOLT-4 leukemia it was 52.7 µM; in the experiment on NCI-H23 lung, greater than 100 µM; in the experiment with OVCAR-8 ovarian it was greater than 100 µM. The TGI is 45.9 µM with RPMI-8226 leukemia, greater than 100 µM in the experiment on SK-OV-3 ovarian and greater than 100 µM in the experiment with SW-620 colon.
As for `Nc1c(S(=O)(=O)c2ccc(Cl)cc2)c2nc3ccccc3nc2n2ccnc12`, the TGI in the experiment with CCRF-CEM leukemia, in the experiment with HOP-92 NSCLC, in the experiment on MOLT-4 leukemia, in the experiment on NCI-H23 lung, in the experiment with OVCAR-8 ovarian and in the experiment with RPMI-8226 leukemia was greater than 100 µM each time. This compound had a TGI in the experiment with SK-OV-3 ovarian greater than 100 µM.
In the case of `O=C1NC(O)CCN1C1OC(CO)C(O)C1O` (stereo unspecified), the TGI with CCRF-CEM leukemia, in the experiment on HOP-92 NSCLC, in the experiment on MOLT-4 leukemia, with NCI-H23 lung, in the experiment with OVCAR-8 ovarian and in the experiment with RPMI-8226 leukemia was greater than 250 µM each time. Further, the TGI with SK-OV-3 ovarian and in the experiment with SW-620 colon was greater than 250 µM throughout.
Take `CSc1csc(-c2ccc(-c3ccc(-c4cc(SC)cs4)s3)s2)c1`: the TGI in the experiment on BT-549 breast, in the experiment with CCRF-CEM leukemia, with MDA-N, in the experiment on MOLT-4 leukemia, with NCI-H23 lung and in the experiment on RPMI-8226 leukemia was greater than 100 µM each time. Moreover, the TGI in the experiment on SK-OV-3 ovarian and in the experiment with SW-620 colon was greater than 100 µM throughout.
In the case of `CN1Cc2c(nc(-c3ccccc3)c[n+]2[O-])N(C)C1`, the TGI in the experiment with CCRF-CEM leukemia, with HOP-92 NSCLC, in the experiment on MOLT-4 leukemia, in the experiment on NCI-H23 lung, in the experiment with OVCAR-8 ovarian and with RPMI-8226 leukemia was greater than 100 µM throughout. In addition, the TGI in the experiment with SK-OV-3 ovarian and with SW-620 colon was greater than 100 µM throughout.
As to `COc1cc(C=O)ccc1O`, the TGI in the experiment with CCRF-CEM leukemia, with HOP-92 NSCLC, with MDA-N, with MOLT-4 leukemia, in the experiment with NCI-H23 lung and in the experiment with OVCAR-8 ovarian was greater than 100 µM in each case. The TGI with RPMI-8226 leukemia and with SW-620 colon was greater than 100 µM in each case.
With `COc1cccc2c1OC(c1cccc3ccccc13)C([N+](=O)[O-])=C2` (stereo unspecified), the TGI was 2.74 µM in the experiment on BT-549 breast; 2.02 µM with CCRF-CEM leukemia; 10.3 µM in the experiment on MDA-N; 5.71 µM with MOLT-4 leukemia; 4.29 µM in the experiment on NCI-H23 lung; 20.9 µM in the experiment on OVCAR-8 ovarian. Moreover, the TGI in the experiment with RPMI-8226 leukemia was greater than 100 µM; in the experiment on SK-OV-3 ovarian, 9.89 µM.
`CCc1n[nH]c(=O)n1-c1ccc2ccccc2c1`: the TGI in the experiment with CCRF-CEM leukemia, in the experiment with HOP-92 NSCLC, in the experiment on MDA-N, in the experiment on MOLT-4 leukemia, in the experiment with NCI-H23 lung and in the experiment on OVCAR-8 ovarian was greater than 100 µM in each case. Moreover, the TGI with RPMI-8226 leukemia, in the experiment with SK-OV-3 ovarian and with SW-620 colon was greater than 100 µM each time.
As for `C=C(CN(C)C)C(=O)c1ccc(C(=O)C(=C)CN(C)C)cc1`, the TGI in the experiment on CCRF-CEM leukemia, with HOP-92 NSCLC, in the experiment on MOLT-4 leukemia, in the experiment on NCI-H23 lung, in the experiment with OVCAR-8 ovarian and in the experiment on RPMI-8226 leukemia was greater than 100 µM each time. Also, the TGI in the experiment with SK-OV-3 ovarian and in the experiment with SW-620 colon was greater than 100 µM each time.
With `CC1(C)CCc2c(ccc(C(=O)/C=C/c3ccc(O)cc3)c2O)O1`, the TGI is 22.3 µM with BT-549 breast; 13.2 µM in the experiment on CCRF-CEM leukemia; 24.4 µM with HOP-92 NSCLC; 69.1 µM in the experiment with MOLT-4 leukemia; 22.7 µM with NCI-H23 lung; 22 µM in the experiment on OVCAR-8 ovarian. Further, the TGI with RPMI-8226 leukemia was determined as 20.8 µM; in the experiment on SK-OV-3 ovarian, 74.6 µM; with SW-620 colon, 24.4 µM.
Consider `COc1cc(C2c3cc4c(cc3[C@@H](Nc3ccccc3)C3COC(=O)[C@H]23)OCO4)cc(OC)c1O` (stereo partly specified), for which the TGI in the experiment on CCRF-CEM leukemia was 0.476 µM; in the experiment on HOP-92 NSCLC, 11.7 µM; with MOLT-4 leukemia it was 0.13 µM; in the experiment on NCI-H23 lung, 3.01 µM; in the experiment on OVCAR-8 ovarian, greater than 19.7 µM; in the experiment on RPMI-8226 leukemia, 2.23 µM. Besides, the figures for the TGI with SK-OV-3 ovarian and in the experiment on SW-620 colon were 4.87 µM and greater than 42.9 µM, respectively.

Values taken from PubChem BioAssay (NCI).
